Laboratory results reported in ChEMBL document CHEMBL4219147, “Design, synthesis, and structure-activity relationships of novel 4,7,12,12a-tetrahydro-5H-thieno[3',2':3,4]pyrido[1,2-b]isoquinoline and 5,8,12,12a-tetrahydro-6H-thieno[2',3':4,5]pyrido[2,1-a]isoquinoline derivatives as cellular activators of adenosine 5'-monophosphate-activated protein kinase …” (Bioorg Med Chem, 2018).
The source made the active and inactive calls. The rule behind the calls is not given here.

Experiments:
[1] = Cytotoxicity against Sprague-Dawley rat L6 cells assessed as cell viability at 5 uM after 12 hrs by SRB assay (reference value: 100 +/- 1.8%); type: cell-based; settings: read-out: Activity
[2] = Cytotoxicity against Sprague-Dawley rat L6 cells assessed as cell viability at 10 uM after 12 hrs by SRB assay (reference value: 100 +/- 1.8%); type: cell-based; settings: read-out: Activity
[3] = test system: L6; assay: Activation of AMPK in differentiated Sprague-Dawley rat L6 myotube cells assessed as glucose consumption at 10 uM after 12 hrs by colorimetric assay (reference value: 100 +/- 1.8%); type: cell-based
[4] = Cytotoxicity against Sprague-Dawley rat L6 cells assessed as cell viability at 20 uM after 12 hrs by SRB assay (reference value: 100 +/- 1.8%); type: cell-based; settings: read-out: Activity
[5] = test system: L6; assay: Activation of AMPK in differentiated Sprague-Dawley rat L6 myotube cells assessed as increase in glucose consumption at 10 uM after 12 hrs by colorimetric assay relative to control; type: cell-based
[6] = test system: L6; assay: Activation of AMPK in differentiated Sprague-Dawley rat L6 myotube cells assessed as glucose consumption at 5 uM after 12 hrs by colorimetric assay (reference value: 100 +/- 1.8%); type: cell-based
[7] = test system: L6; assay: Activation of AMPK in differentiated Sprague-Dawley rat L6 myotube cells assessed as glucose consumption at 20 uM after 12 hrs by colorimetric assay (reference value: 100 +/- 1.8%); type: cell-based
[8] = test system: L6; assay: Inhibition of mitochondrial respiratory complex 1 in differentiated Sprague-Dawley rat L6 myotube cells assessed as mitochondrial membrane potential at 20 uM after 40 to 60 mins by JC-1 staining based fluorescence assay (reference value: 100 +/- 1.6%); type: cell-based; design: scale not given: the % may be the effect or the level left
[9] = test system: L6; assay: Inhibition of mitochondrial respiratory complex 1 in differentiated Sprague-Dawley rat L6 myotube cells assessed as mitochondrial membrane potential at 5 uM after 40 to 60 mins by JC-1 staining based fluorescence assay (reference value: 100 +/- 1.6%); type: cell-based; design: scale not given: the % may be the effect or the level left
[10] = species on record: Rattus norvegicus; assay: Activation of AMPK in Sprague-Dawley rat primary hepatocytes assessed as inhibition of gluconeogenesis by measuring glucose production at 5 uM after 6 hrs by colorimetric assay (reference value: 100 +/- 3.5%); design: scale not given: the % may be the effect or the level left
[11] = species on record: Rattus norvegicus; assay: Activation of AMPK in Sprague-Dawley rat primary hepatocytes assessed as inhibition of gluconeogenesis by measuring glucose production at 10 uM after 6 hrs by colorimetric assay (reference value: 100 +/- 3.5%); design: scale not given: the % may be the effect or the level left
[12] = species on record: Rattus norvegicus; assay: Activation of AMPK in Sprague-Dawley rat primary hepatocytes assessed as inhibition of gluconeogenesis by measuring glucose production after 6 hrs by colorimetric assay
[13] = test system: L6; assay: Upregulation of AMPKalpha phosphorylation at Thr172 residues in Sprague-Dawley rat L6 myotube cells at 5 to 20 uM after 1 hr by Western blot analysis; type: cell-based
[14] = species on record: Rattus norvegicus; assay: Activation of AMPK in Sprague-Dawley rat primary hepatocytes assessed as inhibition of gluconeogenesis by measuring glucose production at 20 uM after 6 hrs by colorimetric assay (reference value: 100 +/- 3.5%); design: scale not given: the % may be the effect or the level left
[15] = test system: L6; assay: Activation of AMPK in Sprague-Dawley rat L6 myotube cells assessed as increase in acetyl-CoA carboxylase phosphorylation at Ser79 residues at 5 to 20 uM after 1 hr by Western blot analysis; type: cell-based
[16] = test system: L6; assay: Inhibition of mitochondrial respiratory complex 1 in differentiated Sprague-Dawley rat L6 myotube cells assessed as mitochondrial membrane potential at 10 uM after 40 to 60 mins by JC-1 staining based fluorescence assay (reference value: 100 +/- 1.6%); type: cell-based; design: scale not given: the % may be the effect or the level left
[17] = test system: L6; assay: Activation of AMPK in Sprague-Dawley rat L6 myotube cells assessed as increase in acetyl-CoA carboxylase phosphorylation at Ser79 residues at 10 uM after 1 hr by Western blot analysis; type: cell-based
[18] = test system: L6; assay: Upregulation of AMPKalpha phosphorylation at Thr172 residues in Sprague-Dawley rat L6 myotube cells at 10 uM after 1 hr by Western blot analysis; type: cell-based

Row | Compound | viability at 12 h, 5 µM [1] | viability at 12 h, 10 µM [2] | Activity [3] | viability at 12 h, 20 µM [4] | fold change (FC) [5] | Activity [6] | Activity [7] | Activity [8] | Activity [9] | Activity [10] | Activity [11] | inhibition [12] | Activity [13] | Activity [14] | Activity [15] | Activity [16] | Activity [17] | Activity [18]
1 | c1cc2c(s1)CC1c3cc4c(cc3CCN1C2)OCO4 (centres undefined) | 98.6% | 99.7% | 134% | 102% | 1.3 | 132% | 133% |  |  |  |  |  |  |  |  |  |  | 
2 | c1ccc(Cc2cc3c(s2)CC2c4cc5c(cc4CCN2C3)OCO5)cc1 (centres undefined) | 102% | 101% | 242% | 101% | 2.4 | 194% | 264% | 79.7% | 98.2% | 59.5% | 48.2% | Dose-dependent effect | Active | 40.9% | Active | 90.7% |  | 
3 | CCCCc1cc2c(s1)CC1c3cc4c(cc3CCN1C2)OCO4 (centres undefined) | 102% | 98.8% | 287% | 97.7% | 2.9 | 265% | 285% | 57.5% | 75.1% | 58.3% | 55.6% | Dose-dependent effect | Active | 53.7% | Active | 68.9% |  | 
4 | COc1ccc2cc3[n+](cc2c1OC)CCc1cc2c(cc1-3)OCO2 [BERBERINE CHLORIDE] |  | 100% | 228% |  |  |  |  | 84.5% | 91.5% | 57.6% |  |  |  |  |  | 85.8% | Active | Active
5 | CCc1cc2c(s1)CC1c3cc4c(cc3CCN1C2)OCO4 (centres undefined) | 99.5% | 102% | 219% | 102% | 2.2 | 212% | 227% |  |  |  |  |  |  |  |  |  |  | 
